Laboratory results from patent US6355785B1, “Guanosine-rich oligonucleotide integrase inhibitors” (Aronex Pharmaceuticals, Inc., priority 1993, dated 2002).
Like-named read-outs stand apart in the source and are kept apart here.

What was measured:
HIV-2 (ROD, EHO) = assay: HIV-2 infection assay in MT4 cells; type: cell-based; conditions: read-out: IC50 virus production
[1] = tested on: HIV-1 laboratory isolates; assay: HIV-1 infection of PBMCs (p24); type: cell-based; conditions: read-out: IC50 viral production
HIV-1IIIB = assay: Time of drug addition study, MT-4 cells (p24); type: cell-based; conditions: 100-fold IC50, MOI 1, p24 at 29 hour
[2] = target: T1, HIV-1 integrase catalytic core IN50-212 (Human immunodeficiency virus type 1 group M subtype B, UniProt P12497); assay: Disintegration assay, IN50-212; type: biochemical; conditions: IN50-212, 3 μM
T1 construct: purchased gift of Drs; T. Jenkins and R. Craigie, NIDDK, NIH (not bought)

[3] = set-up: species or system cynomolgus monkeys; conditions: cynomolgus monkey, in vivo
Experimental: Dosing. Twelve experimentally naive cynomolgus monkeys were assigned to four groups of three animals each. Prior to dosing, each animal was lightly sedated with a combination of ketamine (1 0 mg/kg) and diazepam (0.5 mg/kg), and a catheter was introduced into the femoral artery for recording central arterial pressure. Monkeys were given a single intravenous infusion of 5, 20, or 50 mg AR177/kg or saline over ten minutes through a cephalic vein catheter using a Harvard infusion pump. Arterial blood samples were drawn at −10, +10, +20, +40, +60 and +120 minutes relative to the initiation of infusion into EDTA-containing tubes for hematology, complement factors, coagulation assay, serum chemistry, and plasma AR177 determination. At 24 hours post-infusion, blood was drawn via the femoral vein into EDTA-containing tubes for these same parameters. The concentration of AR177 in dosing solutions was confirmed post experiment by absorbance at 280 nm on a spectrophotometer. For the determination of AR177 by HPLC, the plasma fraction was obtained by low speed centrifugation of blood, and stored at −20° C. until used. Electrocardiograms (ECGs), central pressure, and heart rate were recorded continuously for 120 minutes following the initiation of doing. Table E-1 summarizes the study design. […]
Complement factors. The complement split product Bb and total hemolytic complement CH50 were determined. […]

HIV-1 strain DV = assay: HIV-1 induced syncytia formation assay in SUP T1 cells; type: cell-based
[4] = tested on: HIV-1 strains (SKI, RF, DV, IIIB, ADP/141); assay: microbe, parasite or virus in culture; type: cell-based; conditions: Human immunodeficiency virus 1, IIIB
in vitro = conditions: human

Compound: 5′-gtggtgggtgggtgggt-3′ (GTGGTGGGTGGGTGGGT; phosphorothioate termini, further chemistry not given here) [T30177]
- IC50 (HIV-2 (ROD, EHO); HIV-2EHO): 5.98 ± 1.05 µM
- IC50 (HIV-2 (ROD, EHO); HIV-2ROD): 27.5 ± 11.6 µM
- IC50 ([1]; HIV-1 IIIB): 0.12 µM
- IC50 ([1]; HIV-1 JRCSF): 0.28 ± 0.04 µM
- IC50 ([1]; HIV-1 MN): 1.35 ± 0.1 µM
- IC50 ([1]; HIV-1 RF): 0.75 ± 0.13 µM
- delay of drug addition post-infection at which inhibitory effect is lost (HIV-1IIIB): one hour
- inhibition of disintegration [2]: ≤ 30%
- CH50 levels [3]: small and transient decreases
- change in CHX (CH50) levels [3]: −25%
- IC50 virus-induced cytopathogenicity (Vaccinia virus; Vaccinia virus): >200 µg/mL
- MCC minimum concentration altering normal cell morphology (Vaccinia virus; Vaccinia virus assay): 400 μg/mL

Compound: Cc1cn([C@H]2C[C@H](N=[N+]=[N-])[C@@H](CO)O2)c(=O)[nH]c1=O [AZT, 3′-azido-3′-deoxythymidine]
- reappearance of syncytium after removal of drug (HIV-1 strain DV; 4 μM, removed day 4): two days after removal
- IC50 (HIV-1 strain DV; Human immunodeficiency virus 1, 96 h, SUP T1, HIV-1DV, four days, read-out: IC50 Syn (syncytium inhibition)): 0.04 µM
- IC50 (HIV-1 strain DV; Human immunodeficiency virus 1, SUP-T1, size variants of I100-15, read-out: IC50 Syn.): 0.02 µM
- IC50 ([4]; CEM-SS, read-out: Antiviral Assay IC50 IIIB, HIV-1 IIIB, CEM-SS or MT4): 0.002 µM
- IC50 ([4]; CEM-SS, read-out: Antiviral Assay IC50 RF, HIV-1 RF, CEM-SS or MT4): 0.007 µM
- IC50 ([4]; CEM-SS, read-out: Antiviral Assay IC50 SKI, HIV-1 SKI, CEM-SS or MT4): 0.022 µM
- IC50 ([4]; CEM-SS, read-out: IC50 (cpe assay), RF (CEM-SS), MOI 0.01): 0.01 µM
- IC50 ([4]; CEM-SS, read-out: IC50 (cpe assay), RF (CEM-SS), MOI 0.02): 0.02 µM
- IC50 ([4]; CEM-SS, read-out: IC50 (cpe assay), RF (CEM-SS), MOI 0.04): 0.07 µM
- IC50 ([4]; CEM-SS, read-out: IC50 (cpe assay), RF (CEM-SS), MOI 0.64): > 10 µM
- IC50 ([4]; CEM-SS, read-out: IC50 (cpe assay), RF (CEM-SS), MOI 1.28): > 10 µM
- IC50 ([4]; CEM-SS, read-out: IC50 virus production, HIV-1 IIIB, CEM-SS): 0.002 ± 0.0003 µM
- IC50 ([4]; CEM-SS, read-out: IC50 virus production, HIV-1 RF, CEM-SS, MOI 0.01): 0.007 µM
- IC50 ([4]; CEM-SS, read-out: IC50 virus production, HIV-1 SKI, CEM-SS, MOI 0.01): 0.022 ± 0.0001 µM
- IC90 ([4]; CEM-SS, read-out: IC90 (cpe assay), RF (CEM-SS), MOI 0.16): > 10 µM
- IC90 ([4]; CEM-SS, read-out: IC90 (cpe assay), RF (CEM-SS), MOI 0.32): > 10 µM
- IC90 ([4]; CEM-SS, read-out: IC90 (cpe assay), RF (CEM-SS), MOI 0.64): > 10 µM
- IC90 ([4]; CEM-SS, read-out: IC90 (cpe assay), RF (CEM-SS), MOI 1.28): > 10 µM
- IC50 ([4]; SUP-T1, read-out: IC50 virus production, HIV-1 DV, SUP T1): 0.03 ± 0.005 µM
- IC50 ([4]; SUP-T1, read-out: IC50 virus production, HIV-1 IIIB, SUP T1): 0.03 ± 0.006 µM
- IC50 ([4]; read-out: IC50 (cpe assay)): 0.037 µM
- IC50 ([4]; read-out: IC50 (cpe assay), IIIB (MT4), MOI 0.01): 0.01 µM
- IC50 ([4]; read-out: IC50 virus production, HIV-1 IIIB, AA5): < 0.003 µM
- IC50 ([4]; read-out: IC50 virus production, HIV-1 IIIB, MT2): 0.01 ± 0.004 µM
- IC50 ([4]; read-out: IC50 virus production, HIV-1 RF, MT2): 0.03 ± 0.005 µM
- IC90 ([4]; read-out: IC90 (cpe assay), IIIB (MT4), MOI 0.3): 3.3 µM
- IC50 ([1]; Human immunodeficiency virus 1, IIIB, PBMC, HIV-1 IIIB): 0.003 ± 0.0002 µM
- IC50 ([1]; Human immunodeficiency virus 1, PBMC, HIV-1 JRCSF): 0.0025 ± 0.001 µM
- IC50 ([1]; Human immunodeficiency virus 1, PBMC, HIV-1 MN): 0.053 ± 0.001 µM
- IC50 ([1]; Human immunodeficiency virus 1, PBMC, HIV-1 RF): 0.272 ± 0.003 µM
- delay of drug addition post-infection at which inhibitory effect is lost (HIV-1IIIB): 3 or 4 hours post-infection
- % CD4 (HIV-1 infected PBMCs; IIIB, drug 0.1 μM, day 7): 31%
- % CD8 (HIV-1 infected PBMCs; IIIB, drug 0.1 μM, day 7): 79%
- % CD4 (HIV-1 infected PBMCs; IIIB, drug 1.0 μM): 30%
- % CD8 (HIV-1 infected PBMCs; IIIB, drug 1.0 μM): 81%
- % CD4 (HIV-1 infected PBMCs; IIIB, drug 5.0 μM): 27%
- % CD8 (HIV-1 infected PBMCs; IIIB, drug 5.0 μM): 86%
- % CD4 (HIV-1 infected PBMCs; MN, drug 0.1 μM): 25%
- % CD8 (HIV-1 infected PBMCs; MN, drug 0.1 μM): 82%
- % CD4 (HIV-1 infected PBMCs; MN, drug 1.0 μM): 35%
- % CD8 (HIV-1 infected PBMCs; MN, drug 1.0 μM): 79%
- % CD4 (HIV-1 infected PBMCs; MN, drug 5.0 μM): 36%
- % CD8 (HIV-1 infected PBMCs; MN, drug 5.0 μM): 78%
- % CD4 (HIV-1 infected PBMCs; N. Amer. #1, drug 0.1 μM): 25%
- % CD8 (HIV-1 infected PBMCs; N. Amer. #1, drug 0.1 μM): 83%
- % CD4 (HIV-1 infected PBMCs; N. Amer. #1, drug 1.0 μM): 25%
- % CD8 (HIV-1 infected PBMCs; N. Amer. #1, drug 1.0 μM): 84%
- % CD4 (HIV-1 infected PBMCs; N. Amer. #1, drug 5.0 μM): 26%
- % CD8 (HIV-1 infected PBMCs; N. Amer. #1, drug 5.0 μM): 85%
- % CD4 (HIV-1 infected PBMCs; N. Amer. #2, drug 0.1 μM): 6%
- % CD8 (HIV-1 infected PBMCs; N. Amer. #2, drug 0.1 μM): 95%
- % CD4 (HIV-1 infected PBMCs; N. Amer. #2, drug 1.0 μM): 13%
- % CD8 (HIV-1 infected PBMCs; N. Amer. #2, drug 1.0 μM): 89%
- % CD4 (HIV-1 infected PBMCs; N. Amer. #2, drug 5.0 μM): 25%
- % CD8 (HIV-1 infected PBMCs; N. Amer. #2, drug 5.0 μM): 85%
- % CD4 (HIV-1 infected PBMCs; RF, drug 0.1 μM): 23%
- % CD8 (HIV-1 infected PBMCs; RF, drug 0.1 μM): 84%
- % CD4 (HIV-1 infected PBMCs; RF, drug 1.0 μM): 32%
- % CD8 (HIV-1 infected PBMCs; RF, drug 1.0 μM): 76%
- % CD4 (HIV-1 infected PBMCs; RF, drug 5.0 μM): 34%
- % CD8 (HIV-1 infected PBMCs; RF, drug 5.0 μM): 81%
- % CD4 (HIV-1 infected PBMCs; SE Asia isolate, drug 0.1 μM): 29%
- % CD8 (HIV-1 infected PBMCs; SE Asia isolate, drug 0.1 μM): 82%
- % CD4 (HIV-1 infected PBMCs; SE Asia isolate, drug 1.0 μM): 31%
- % CD8 (HIV-1 infected PBMCs; SE Asia isolate, drug 1.0 μM): 82%
- % CD4 (HIV-1 infected PBMCs; SE Asia isolate, drug 5.0 μM): 29%
- % CD8 (HIV-1 infected PBMCs; SE Asia isolate, drug 5.0 μM): 86%
- CC50 (in vitro): ~10 µM
